According to US11254717B2, “Antimicrobial peptide Sparamosin from Scylla paramamosain and application thereof” (priority 2018, dated 2022):
In brackets after ≈: the same amount, converted by molar mass. Ends that are not written are not given here. Peptide text beside a SMILES is read from it.

How the values were obtained:
[1] = system: Bacillus cereus
[2] = system: Staphylococcus aureus
[3] = system: Pseudomonas fluorescens
[4] = system: Pichia pastoris (GS115)
[5] = system: Escherichia coli
[6] = system: Cryptococcus neoformans
[7] = system: Aspergillus fumigatus
[8] = system: Corynebacterium glutamicum
[9] = system: various Gram-positive bacteria and Gram-negative bacteria
[10] = system: Aspergillus niger
[11] = system: Pseudomonas aeruginosa
[12] = system: Neurospora crasa
[13] = system: various molds
[14] = system: Aspergillus flavus
[15] = system: Aspergillus ochraceus
[16] = system: Candida albicans
[17] = system: Fusarium oxysporum
[18] = system: normal mouse liver cell line (AML12 cell line); test: Cytotoxicity, MTS-PMS assay; type: cell-based; details: normal cultured mouse hepatocytes
Experimental: (§1) The cytotoxicity effect of synthetic Sparamosin26-54 was evaluated using normal mouse liver cell line (AML12 cell line) and normal human liver cell line (L02 cell line).
(§2) (1) AML12 or L02 cells were harvested, and the cell concentration was adjusted to 10^5 cells/mL.
(§3) (2) 100 μL of AML12 or L02 cells were seeded in 96-wells and incubated at 37° C.
(§4) (3) Cells were treated with different concentrations of Sparamosin26-54 (0, 0.1, 1, 10, 100 μg/mL) for 24 h at 37° C.
(§5) (4) Cells were treated with 20 μL of MTS-PMS reagent for another 2 hours, and then the absorbance value of each well was measured at 492 nm (see FIG. 4).

[19] = system: normal human liver cell line (L02 cell line); test: Cytotoxicity, MTS-PMS assay; type: cell-based; details: normal cultured human hepatocytes
Experimental: as §1, §2, §3, §4, §5

With “APVPDPDSEQSNISEVLKVQHSIFSGLGPNPCRKKCYKRDFLGRCRLNFTCMFG (cysteines drawn unpaired) [Sparamosin]” the “MBC: minimum bactericidal concentration” value [1] was greater than 48 µM, the “MIC: minimum inhibitory concentration” value [1] was 24 to 48 µM and the “MBC: minimum bactericidal concentration” value [2] was 48 µM. For the same compound, the “MIC: minimum inhibitory concentration” value [2] was 12 to 24 µM, the “MBC: minimum bactericidal concentration” value [3] was 24 µM and the “MIC: minimum inhibitory concentration” value [3] was 12 to 24 µM. For the same compound, the “MBC: minimum bactericidal concentration” value [4] was 24 µM, the “MIC: minimum inhibitory concentration” value [4] was 6 to 12 µM and the “MBC: minimum bactericidal concentration” value [5] was 24 µM. For the same compound, the “MIC: minimum inhibitory concentration” value [5] was 12 to 24 µM, the “MBC: minimum bactericidal concentration” value [6] was greater than 48 µM and the “MIC: minimum inhibitory concentration” value [6] was greater than 48 µM.
`CSCC[C@H](NC(=O)[C@H](CS)NC(=O)[C@@H](NC(=O)[C@H](Cc1ccccc1)NC(=O)[C@H](CC(N)=O)NC(=O)[C@H](CC(C)C)NC(=O)[C@H](CCCNC(=N)N)NC(=O)[C@H](CS)NC(=O)[C@H](CCCNC(=N)N)NC(=O)CNC(=O)[C@H](CC(C)C)NC(=O)[C@H](Cc1ccccc1)NC(=O)[C@H](CC(=O)O)NC(=O)[C@H](CCCNC(=N)N)NC(=O)[C@H](CCCCN)NC(=O)[C@H](Cc1ccc(O)cc1)NC(=O)[C@H](CS)NC(=O)[C@H](CCCCN)NC(=O)[C@H](CCCCN)NC(=O)[C@H](CCCNC(=N)N)NC(=O)[C@H](CS)NC(=O)[C@@H]1CCCN1C(=O)[C@H](CC(N)=O)NC(=O)[C@@H]1CCCN1C(=O)CNC(=O)[C@H](CC(C)C)NC(=O)CN)[C@@H](C)O)C(=O)N[C@@H](Cc1ccccc1)C(=O)NCC(=O)O` [Sparamosin26-54] (H-GLGPNPCRKKCYKRDFLGRCRLNFTCMFG-OH; N-terminus and C-terminus assumed) was tested, and the “MBC: minimum bactericidal concentration” value [7] was 24 µM (≈ 81.2 µg/mL), the “MIC: minimum inhibitory concentration” value [7] was 12 to 24 µM and the “MBC: minimum bactericidal concentration” value [8] was 6 µM (≈ 20.3 µg/mL). The “MIC: minimum inhibitory concentration” value [8] was 1.5 to 3 µM, the “minimum inhibitory concentration (MIC) value” [9] was 3 to 12 µM and the “MBC: minimum bactericidal concentration” value [1] was 24 µM (≈ 81.2 µg/mL). For the same compound, the “MIC: minimum inhibitory concentration” value [1] was 6 to 12 µM, the “MBC: minimum bactericidal concentration” value [2] was 12 µM (≈ 40.6 µg/mL) and the “MIC: minimum inhibitory concentration” value [2] was 3 to 6 µM. For the same compound, the “MBC: minimum bactericidal concentration” value [3] was 6 µM (≈ 20.3 µg/mL), the “MIC: minimum inhibitory concentration” value [3] was 3 to 6 µM and the “MBC: minimum bactericidal concentration” value [4] was 3 µM (≈ 10.1 µg/mL). The “MIC: minimum inhibitory concentration” value [4] was 1.5 to 3 µM, the “MBC: minimum bactericidal concentration” value [5] was 12 µM (≈ 40.6 µg/mL) and the “MIC: minimum inhibitory concentration” value [5] was 6 to 12 µM. The “MBC: minimum bactericidal concentration” value [10] was 24 µM (≈ 81.2 µg/mL), the “MIC: minimum inhibitory concentration” value [10] was 6 to 12 µM and the “MBC: minimum bactericidal concentration” value [11] was 12 µM (≈ 40.6 µg/mL). The “MIC: minimum inhibitory concentration” value [11] was 6 to 12 µM, the “MBC: minimum bactericidal concentration” value [6] was 12 µM (≈ 40.6 µg/mL) and the “MIC: minimum inhibitory concentration” value [6] was 1.5 to 3 µM. The “MBC: minimum bactericidal concentration” value [12] was 48 µM (≈ 162 µg/mL), the MIC value [13] was 6 to 24 µM and the “MBC: minimum bactericidal concentration” value [14] was greater than 48 µM. The “MIC: minimum inhibitory concentration” value [14] was greater than 48 µM, the “MBC: minimum bactericidal concentration” value [15] was 48 µM (≈ 162 µg/mL) and the “MIC: minimum inhibitory concentration” value [15] was 3 to 6 µM. For the same compound, the “MBC: minimum bactericidal concentration” value [16] was greater than 48 µM, the “MIC: minimum inhibitory concentration” value [16] was greater than 48 µM and the “MBC: minimum bactericidal concentration” value [17] was 12 µM (≈ 40.6 µg/mL). The cytotoxic effect [18] was “no cytotoxic effect” and the cytotoxic effect [19] was “no cytotoxic effect”.
